Test system: human astrocytes (HA)
Test: LCN2 expression (qRT-PCR) in human astrocytes stimulated with IL-1β
Format: cell-based
Conditions: 1 ng/mL or 10 ng/mL IL-1β, 20 h
Protocol: In order to compare the structure and function of human astrocytes (HA) in 2D and 3D cultures, HAs were seeded at a density of 1×10^6 cells/mL in Matrigel (Growth factor-reduced; Corning, NY, USA) coated 24-wells and in 3D Matrigel (5 mg/mL). After 1 day of culture, cells were stimulated with 1 ng/mL or 10 ng/mL of recombinant human interleukin-1-beta (IL-1β; Gibco, Grand Island, NY, USA) and incubated for another 20 h for analysis.
The gene expression level of the reactive gliosis marker in 2D or 3D cultured human astrocytes (HA) was confirmed through qRT-PCR analysis. To analyze glial reactivity of HA in 2D and 3D culture system (n=4), standard qRT-PCR was performed with a StepOnePlus Real-Time PCR system (Applied Biosystems) using TaqMan Fast Universal PCR Master Mix (Applied Biosystems). The target genes were assessed using commercially available primers, and the primers used in the experiment are shown in Table 2 below.

Substance: IL-1β: recombinant human interleukin-1-beta, an inflammatory cytokine
- expression level of LCN2 (HA inside 3D Matrigel, FIG. 41): dose-dependently controlled
- expression level of LCN2 (HA on 2D Matrigel-coated surface, FIG. 40): dose-dependently controlled
